Reference: the supplement of paper PMC10307832

Key:
Experiment in all cases: relative viability (nuclei count vs DMSO), 5 days (fraction); higher = more cells survive
[1] = compound: CN(c1ncccc1CNc1nc(Nc2ccc3c(c2)CC(=O)N3)ncc1C(F)(F)F)S(C)(=O)=O
Procedure, shortened: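 Following overnight incubation at 37 °C, lung cancer cell lines in 1536-well plates were pinned with five library-drug doses (not always all listed) in √10 steps on vehicle-anchored plates. The cells then spent 5 days without medium change before a combined fix, permeabilisation and Hoechst stain, 4× imaging and MetaXpress nuclear counts. Viability is the treated-to-vehicle ratio of nuclei, taken as the median across plates. Only plates with control CV below 25% and at least one doubling passed.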

[2] = compound: CN(c1ncccc1CNc1nc(Nc2ccc3c(c2)CC(=O)N3)ncc1C(F)(F)F)S(C)(=O)=O + CC(=O)c1c(C)c2cnc(Nc3ccc(N4CCNCC4)cn3)nc2n(C2CCCC2)c1=O [Palbociclib] (partner 0.5 µM)
Procedure, shortened: (§1)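 The day after seeding in 1536-well plates, lung cancer cell lines were treated by pin tool with a single drug, or with a fixed anchor-drug dose together with five library-drug doses (not always all listed) in √10 steps. After 5 days, a combined fix-and-stain solution (final 0.05% Triton X-100, 1% formaldehyde, 1 ug/ml Hoechst) was added. Nuclei counted on 4× images gave relative viability as treated counts over vehicle counts, reported as the median of duplicate plates.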

[3] = compound: CN(c1ncccc1CNc1nc(Nc2ccc3c(c2)CC(=O)N3)ncc1C(F)(F)F)S(C)(=O)=O + COc1cc2c(Oc3ccc(NC(=O)C4(C(=O)Nc5ccc(F)cc5)CC4)cc3F)ccnc2cc1OCCCN1CCOCC1 [Foretinib] (partner 0.25 µM)
Procedure, shortened: as §1

[4] = compound: CN(c1ncccc1CNc1nc(Nc2ccc3c(c2)CC(=O)N3)ncc1C(F)(F)F)S(C)(=O)=O + COc1cccc2cc(-c3nc([C@H]4CC[C@H](C(=O)O)CC4)n4ncnc(N)c34)[nH]c12 [OSI-027] (partner 0.5 µM)
Procedure, shortened: as §1

NCI-H650 was tested, and the relative viability ([1]; 0.01 µM) was 1.03, the relative viability ([1]; 0.03162 µM) was 1 and the relative viability ([1]; 0.1 µM) was 0.825. For the same cell line, the relative viability ([1]; 0.3162 µM) was 0.905, the relative viability ([1]; 1 µM) was 0.802 and the relative viability ([2]; first compound 0.01 µM) was 0.324. The relative viability ([2]; first compound 0.03162 µM) was 0.32, the relative viability ([2]; first compound 0.1 µM) was 0.307 and the relative viability ([2]; first compound 0.3162 µM) was 0.266. For the same cell line, the relative viability ([2]; first compound 1 µM) was 0.3, the relative viability ([3]; first compound 0.01 µM) was 1.02 and the relative viability ([3]; first compound 0.03162 µM) was 0.953. For the same cell line, the relative viability ([3]; first compound 0.1 µM) was 0.935, the relative viability ([3]; first compound 0.3162 µM) was 0.796 and the relative viability ([3]; first compound 1 µM) was 0.853. The relative viability ([4]; first compound 0.01 µM) was 0.401, the relative viability ([4]; first compound 0.03162 µM) was 0.555 and the relative viability ([4]; first compound 0.1 µM) was 0.408. For the same cell line, the relative viability ([4]; first compound 0.3162 µM) was 0.455 and the relative viability ([4]; first compound 1 µM) was 0.465.
With NCI-H661 the relative viability ([1]; 0.01 µM) was 1.08, the relative viability ([1]; 0.03162 µM) was 1.05 and the relative viability ([1]; 0.1 µM) was 0.89. For the same cell line, the relative viability ([1]; 0.3162 µM) was 0.988, the relative viability ([1]; 1 µM) was 0.968 and the relative viability ([2]; first compound 0.01 µM) was 0.406. It also gave a relative viability ([2]; first compound 0.03162 µM) of 0.385, a relative viability ([2]; first compound 0.1 µM) of 0.429 and a relative viability ([2]; first compound 0.3162 µM) of 0.383. It also gave a relative viability ([2]; first compound 1 µM) of 0.341, a relative viability ([3]; first compound 0.01 µM) of 1.01 and a relative viability ([3]; first compound 0.03162 µM) of 1.04. It also gave a relative viability ([3]; first compound 0.1 µM) of 0.989, a relative viability ([3]; first compound 0.3162 µM) of 0.993 and a relative viability ([3]; first compound 1 µM) of 0.92. For the same cell line, the relative viability ([4]; first compound 0.01 µM) was 0.69, the relative viability ([4]; first compound 0.03162 µM) was 0.668 and the relative viability ([4]; first compound 0.1 µM) was 0.641. The relative viability ([4]; first compound 0.3162 µM) was 0.774 and the relative viability ([4]; first compound 1 µM) was 0.784.
NCI-H727 showed a relative viability ([1]; 0.01 µM) of 1, a relative viability ([1]; 0.03162 µM) of 0.949 and a relative viability ([1]; 0.1 µM) of 0.87. For the same cell line, the relative viability ([1]; 0.3162 µM) was 1.02, the relative viability ([1]; 1 µM) was 0.79 and the relative viability ([2]; first compound 0.01 µM) was 0.681. The relative viability ([2]; first compound 0.03162 µM) was 0.607, the relative viability ([2]; first compound 0.1 µM) was 0.651 and the relative viability ([2]; first compound 0.3162 µM) was 0.684. For the same cell line, the relative viability ([2]; first compound 1 µM) was 0.688, the relative viability ([3]; first compound 0.01 µM) was 0.836 and the relative viability ([3]; first compound 0.03162 µM) was 0.873. For the same cell line, the relative viability ([3]; first compound 0.1 µM) was 0.932, the relative viability ([3]; first compound 0.3162 µM) was 1 and the relative viability ([3]; first compound 1 µM) was 0.891. The relative viability ([4]; first compound 0.01 µM) was 0.782, the relative viability ([4]; first compound 0.03162 µM) was 0.75 and the relative viability ([4]; first compound 0.1 µM) was 0.649. It also gave a relative viability ([4]; first compound 0.3162 µM) of 0.59 and a relative viability ([4]; first compound 1 µM) of 0.537.
NCI-H838 was tested, and the relative viability ([1]; 0.01 µM) was 1.01, the relative viability ([1]; 0.03162 µM) was 1.03 and the relative viability ([1]; 0.1 µM) was 0.979. The relative viability ([1]; 0.3162 µM) was 0.903, the relative viability ([1]; 1 µM) was 0.808 and the relative viability ([2]; first compound 0.01 µM) was 0.243. It also gave a relative viability ([2]; first compound 0.03162 µM) of 0.237, a relative viability ([2]; first compound 0.1 µM) of 0.211 and a relative viability ([2]; first compound 0.3162 µM) of 0.204. The relative viability ([2]; first compound 1 µM) was 0.204, the relative viability ([3]; first compound 0.01 µM) was 1.01 and the relative viability ([3]; first compound 0.03162 µM) was 1.06. The relative viability ([3]; first compound 0.1 µM) was 1.07, the relative viability ([3]; first compound 0.3162 µM) was 0.882 and the relative viability ([3]; first compound 1 µM) was 0.718. It also gave a relative viability ([4]; first compound 0.01 µM) of 0.492, a relative viability ([4]; first compound 0.03162 µM) of 0.413 and a relative viability ([4]; first compound 0.1 µM) of 0.396. It also gave a relative viability ([4]; first compound 0.3162 µM) of 0.394 and a relative viability ([4]; first compound 1 µM) of 0.413.
NCI-H1355 was tested, and the relative viability ([1]; 0.01 µM) was 1.03, the relative viability ([1]; 0.03162 µM) was 1.03 and the relative viability ([1]; 0.1 µM) was 0.954. The relative viability ([1]; 0.3162 µM) was 0.995, the relative viability ([1]; 1 µM) was 0.948 and the relative viability ([2]; first compound 0.01 µM) was 0.387. The relative viability ([2]; first compound 0.03162 µM) was 0.362, the relative viability ([2]; first compound 0.1 µM) was 0.407 and the relative viability ([2]; first compound 0.3162 µM) was 0.418. For the same cell line, the relative viability ([2]; first compound 1 µM) was 0.331, the relative viability ([3]; first compound 0.01 µM) was 0.937 and the relative viability ([3]; first compound 0.03162 µM) was 1.01. For the same cell line, the relative viability ([3]; first compound 0.1 µM) was 1, the relative viability ([3]; first compound 0.3162 µM) was 0.884 and the relative viability ([3]; first compound 1 µM) was 0.907. It also gave a relative viability ([4]; first compound 0.01 µM) of 0.481, a relative viability ([4]; first compound 0.03162 µM) of 0.428 and a relative viability ([4]; first compound 0.1 µM) of 0.377. The relative viability ([4]; first compound 0.3162 µM) was 0.412 and the relative viability ([4]; first compound 1 µM) was 0.396.
Work on NCI-H1395 yielded a relative viability ([1]; 0.01 µM) of 0.94, a relative viability ([1]; 0.03162 µM) of 0.977 and a relative viability ([1]; 0.1 µM) of 0.812. The relative viability ([1]; 0.3162 µM) was 1.01, the relative viability ([1]; 1 µM) was 0.988 and the relative viability ([2]; first compound 0.01 µM) was 0.649. It also gave a relative viability ([2]; first compound 0.03162 µM) of 0.602, a relative viability ([2]; first compound 0.1 µM) of 0.698 and a relative viability ([2]; first compound 0.3162 µM) of 0.655. It also gave a relative viability ([2]; first compound 1 µM) of 0.596, a relative viability ([3]; first compound 0.01 µM) of 0.985 and a relative viability ([3]; first compound 0.03162 µM) of 1.12. For the same cell line, the relative viability ([3]; first compound 0.1 µM) was 0.952, the relative viability ([3]; first compound 0.3162 µM) was 0.849 and the relative viability ([3]; first compound 1 µM) was 0.954. The relative viability ([4]; first compound 0.01 µM) was 0.657, the relative viability ([4]; first compound 0.03162 µM) was 0.606 and the relative viability ([4]; first compound 0.1 µM) was 0.671. It also gave a relative viability ([4]; first compound 0.3162 µM) of 0.738 and a relative viability ([4]; first compound 1 µM) of 0.721.
For NCI-H1437, the relative viability ([1]; 0.01 µM) was 0.994, the relative viability ([1]; 0.03162 µM) was 1.02 and the relative viability ([1]; 0.1 µM) was 0.946. The relative viability ([1]; 0.3162 µM) was 0.936, the relative viability ([1]; 1 µM) was 0.877 and the relative viability ([2]; first compound 0.01 µM) was 0.348. For the same cell line, the relative viability ([2]; first compound 0.03162 µM) was 0.297, the relative viability ([2]; first compound 0.1 µM) was 0.265 and the relative viability ([2]; first compound 0.3162 µM) was 0.269. It also gave a relative viability ([2]; first compound 1 µM) of 0.209, a relative viability ([3]; first compound 0.01 µM) of 1.31 and a relative viability ([3]; first compound 0.03162 µM) of 1.2. It also gave a relative viability ([3]; first compound 0.1 µM) of 1.21, a relative viability ([3]; first compound 0.3162 µM) of 1.11 and a relative viability ([3]; first compound 1 µM) of 0.988. It also gave a relative viability ([4]; first compound 0.01 µM) of 0.96, a relative viability ([4]; first compound 0.03162 µM) of 0.929 and a relative viability ([4]; first compound 0.1 µM) of 0.917. The relative viability ([4]; first compound 0.3162 µM) was 0.876 and the relative viability ([4]; first compound 1 µM) was 0.773.
NCI-H1650 was tested, and the relative viability ([1]; 0.01 µM) was 0.924, the relative viability ([1]; 0.03162 µM) was 0.961 and the relative viability ([1]; 0.1 µM) was 0.947. For the same cell line, the relative viability ([1]; 0.3162 µM) was 0.904, the relative viability ([1]; 1 µM) was 0.886 and the relative viability ([2]; first compound 0.01 µM) was 0.291. For the same cell line, the relative viability ([2]; first compound 0.03162 µM) was 0.31, the relative viability ([2]; first compound 0.1 µM) was 0.367 and the relative viability ([2]; first compound 0.3162 µM) was 0.321. The relative viability ([2]; first compound 1 µM) was 0.304, the relative viability ([3]; first compound 0.01 µM) was 1.12 and the relative viability ([3]; first compound 0.03162 µM) was 1.25. For the same cell line, the relative viability ([3]; first compound 0.1 µM) was 1.38, the relative viability ([3]; first compound 0.3162 µM) was 1.19 and the relative viability ([3]; first compound 1 µM) was 0.971. For the same cell line, the relative viability ([4]; first compound 0.01 µM) was 0.64, the relative viability ([4]; first compound 0.03162 µM) was 0.727 and the relative viability ([4]; first compound 0.1 µM) was 0.701. For the same cell line, the relative viability ([4]; first compound 0.3162 µM) was 0.612 and the relative viability ([4]; first compound 1 µM) was 0.645.
